Test results as given in paper PMC8228234, “Identifying a Novel Bile Salt Hydrolase from the Keystone Gut Bacterium Christensenella minuta” (Microorganisms, 2021).

Molecular target: T1, Cm33407BSH (Christensenella minuta, UniProt A0A8F5DVT9)
T1 construct: gene BSH
Assay: ninhydrin assay of released amino acid
Type: biochemical
Conditions: citrate buffer pH 6.0, 37 °C, 10 mM DTT, 5 mM substrate

T1 sequence (A0A8F5DVT9 entry or part of it): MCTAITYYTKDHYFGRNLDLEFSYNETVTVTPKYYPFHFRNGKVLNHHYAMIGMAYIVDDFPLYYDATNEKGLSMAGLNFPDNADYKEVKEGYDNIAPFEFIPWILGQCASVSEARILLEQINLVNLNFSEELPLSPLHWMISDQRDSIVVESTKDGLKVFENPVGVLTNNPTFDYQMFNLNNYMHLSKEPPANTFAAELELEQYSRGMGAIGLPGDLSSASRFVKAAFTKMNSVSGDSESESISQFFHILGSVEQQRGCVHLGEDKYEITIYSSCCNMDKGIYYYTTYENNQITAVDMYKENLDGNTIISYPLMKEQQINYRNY

SMILES: C[C@H](CCC(=O)NCC(=O)O)[C@H]1CC[C@H]2[C@@H]3[C@H](O)C[C@@H]4C[C@H](O)CC[C@]4(C)[C@H]3C[C@H](O)[C@]12C [GCA]
- specific activity: displayed high specific activity values for the glycine conjugates GCA and GCDCA

SMILES: C[C@H](CCC(=O)NCC(=O)O)[C@H]1CC[C@H]2[C@@H]3[C@H](O)C[C@@H]4C[C@H](O)CC[C@]4(C)[C@H]3CC[C@]12C [GCDCA]
- specific activity: displayed high specific activity values for the glycine conjugates GCA and GCDCA
